{"source": "ChEMBL document CHEMBL1201862", "about": "“PubChem BioAssay data set” (2004)", "key": {"[1]": {"target": "Scavenger receptor class B member 1 (Mus musculus, UniProt Q61009)", "sequence (Q61009 whole entry)": "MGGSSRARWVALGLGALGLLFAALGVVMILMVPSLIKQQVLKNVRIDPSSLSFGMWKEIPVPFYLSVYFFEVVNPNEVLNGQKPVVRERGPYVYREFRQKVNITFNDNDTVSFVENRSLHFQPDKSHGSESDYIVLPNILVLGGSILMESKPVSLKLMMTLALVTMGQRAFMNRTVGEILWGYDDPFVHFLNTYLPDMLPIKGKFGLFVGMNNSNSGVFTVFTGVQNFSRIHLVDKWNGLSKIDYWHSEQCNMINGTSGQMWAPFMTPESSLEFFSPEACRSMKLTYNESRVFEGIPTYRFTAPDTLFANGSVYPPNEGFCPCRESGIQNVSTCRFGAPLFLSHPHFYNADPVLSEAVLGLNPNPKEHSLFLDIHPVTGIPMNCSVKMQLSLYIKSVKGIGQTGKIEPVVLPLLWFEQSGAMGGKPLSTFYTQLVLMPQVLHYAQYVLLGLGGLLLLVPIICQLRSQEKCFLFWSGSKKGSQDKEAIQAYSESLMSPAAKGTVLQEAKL", "assay": "inhibitors of SR-BI mediated HDL lipid uptake, dose response, ldlA[mSR-BI] cells, fluorescence, cherry pick (AID 493194);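 further: cellular uptake of fluorescent DiI-labeled HDL measured as cell fluorescence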", "assay_type": "functional, cell-based"}, "[2]": {"target": "Metabotropic glutamate receptor 4 (Homo sapiens, UniProt Q14833)", "sequence (Q14833 whole entry)": "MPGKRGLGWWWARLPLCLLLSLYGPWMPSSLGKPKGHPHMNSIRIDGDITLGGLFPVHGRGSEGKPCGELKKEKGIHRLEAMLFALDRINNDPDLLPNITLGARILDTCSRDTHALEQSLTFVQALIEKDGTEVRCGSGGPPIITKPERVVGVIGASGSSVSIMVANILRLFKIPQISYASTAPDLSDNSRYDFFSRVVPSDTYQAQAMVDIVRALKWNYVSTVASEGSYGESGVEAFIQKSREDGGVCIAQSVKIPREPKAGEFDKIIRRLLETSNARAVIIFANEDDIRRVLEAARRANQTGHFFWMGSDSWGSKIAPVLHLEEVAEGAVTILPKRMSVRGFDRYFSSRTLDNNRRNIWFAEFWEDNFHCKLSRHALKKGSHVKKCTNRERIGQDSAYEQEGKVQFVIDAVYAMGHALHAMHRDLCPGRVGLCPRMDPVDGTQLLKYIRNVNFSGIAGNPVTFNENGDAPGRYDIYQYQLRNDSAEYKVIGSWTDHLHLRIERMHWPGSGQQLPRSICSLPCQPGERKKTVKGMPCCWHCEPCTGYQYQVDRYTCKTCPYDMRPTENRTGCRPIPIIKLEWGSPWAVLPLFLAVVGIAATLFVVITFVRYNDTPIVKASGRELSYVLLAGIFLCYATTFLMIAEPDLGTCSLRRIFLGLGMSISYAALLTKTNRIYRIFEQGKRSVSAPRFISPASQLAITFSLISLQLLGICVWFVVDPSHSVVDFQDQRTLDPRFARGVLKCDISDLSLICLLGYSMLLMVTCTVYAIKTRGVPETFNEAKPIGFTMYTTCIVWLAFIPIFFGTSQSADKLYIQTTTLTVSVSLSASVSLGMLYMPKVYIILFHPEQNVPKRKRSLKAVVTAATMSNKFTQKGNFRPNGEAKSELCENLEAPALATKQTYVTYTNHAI", "assay": "Modulation of the Metabotropic Glutamate Receptor mGluR4: Potency at human mGluR4. Modulation of intracellular Ca2+ using Fluo-4, AM, in CHO expressing recombinant receptor [Related pubchem assays (depositor defined):AID2437, AID2807]", "assay_type": "functional, cell-based"}, "[3]": {"target": "Metabotropic glutamate receptor 4 (Rattus norvegicus, UniProt P31423)", "sequence (P31423 whole entry)": "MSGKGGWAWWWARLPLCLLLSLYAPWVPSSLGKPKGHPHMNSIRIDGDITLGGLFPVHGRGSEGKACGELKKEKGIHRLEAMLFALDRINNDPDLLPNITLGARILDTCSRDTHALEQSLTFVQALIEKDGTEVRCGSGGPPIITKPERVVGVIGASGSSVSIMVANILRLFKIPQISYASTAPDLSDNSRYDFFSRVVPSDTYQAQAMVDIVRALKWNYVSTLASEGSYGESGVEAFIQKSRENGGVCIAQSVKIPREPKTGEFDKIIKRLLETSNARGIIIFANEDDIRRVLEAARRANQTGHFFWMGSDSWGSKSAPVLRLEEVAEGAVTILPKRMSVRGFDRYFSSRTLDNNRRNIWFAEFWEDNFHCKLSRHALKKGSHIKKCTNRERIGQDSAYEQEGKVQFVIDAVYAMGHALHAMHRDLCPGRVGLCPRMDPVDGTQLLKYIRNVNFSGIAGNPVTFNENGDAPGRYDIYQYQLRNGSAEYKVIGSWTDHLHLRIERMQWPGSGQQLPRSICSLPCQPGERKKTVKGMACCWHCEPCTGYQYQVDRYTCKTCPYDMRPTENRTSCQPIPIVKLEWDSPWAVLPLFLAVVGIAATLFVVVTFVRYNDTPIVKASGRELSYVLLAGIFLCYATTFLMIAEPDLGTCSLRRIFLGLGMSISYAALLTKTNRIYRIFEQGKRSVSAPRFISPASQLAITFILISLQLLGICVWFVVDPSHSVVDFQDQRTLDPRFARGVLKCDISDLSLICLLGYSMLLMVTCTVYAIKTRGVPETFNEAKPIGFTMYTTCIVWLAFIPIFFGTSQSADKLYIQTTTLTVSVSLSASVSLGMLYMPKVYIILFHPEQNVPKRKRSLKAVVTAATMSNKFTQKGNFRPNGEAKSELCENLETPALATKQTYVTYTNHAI", "assay": "Modulation of the Metabotropic Glutamate Receptor mGluR4: Rat PAM Potency. [Related pubchem assays (depositor defined):AID2437, AID2807]", "assay_type": "functional"}, "[4]": {"assay": "inhibition of K1F phage lysis, E. coli UTI89, bacterial capsule biogenesis inhibitors, alamar blue (AID 488966)", "assay_type": "functional"}, "[5]": {"target": "T1, Zinc finger protein mex-5 (Caenorhabditis elegans, UniProt Q9XUB2)", "T1 sequence (Q9XUB2 whole entry)": "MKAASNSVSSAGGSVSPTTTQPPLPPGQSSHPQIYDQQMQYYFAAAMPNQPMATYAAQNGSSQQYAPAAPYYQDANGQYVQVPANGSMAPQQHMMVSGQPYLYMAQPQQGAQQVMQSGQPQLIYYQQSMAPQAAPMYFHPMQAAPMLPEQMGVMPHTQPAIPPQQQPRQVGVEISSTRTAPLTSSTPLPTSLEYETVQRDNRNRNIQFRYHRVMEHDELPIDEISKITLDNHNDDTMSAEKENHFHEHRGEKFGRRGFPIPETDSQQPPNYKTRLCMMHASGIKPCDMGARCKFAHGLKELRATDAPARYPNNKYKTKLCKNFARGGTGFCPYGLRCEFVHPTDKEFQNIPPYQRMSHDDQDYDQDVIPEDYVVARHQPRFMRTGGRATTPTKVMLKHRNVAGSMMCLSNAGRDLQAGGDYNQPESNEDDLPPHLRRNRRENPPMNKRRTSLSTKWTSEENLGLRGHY", "assay": "MEX-5/TCR-2 RNA interaction inhibitors, dose response, biochemical, C. elegans, fluorescence polarization (AID 1960)"}, "[6]": {"target": "Neurotensin receptor type 1 (Homo sapiens, UniProt P30989)", "sequence (P30989 whole entry)": "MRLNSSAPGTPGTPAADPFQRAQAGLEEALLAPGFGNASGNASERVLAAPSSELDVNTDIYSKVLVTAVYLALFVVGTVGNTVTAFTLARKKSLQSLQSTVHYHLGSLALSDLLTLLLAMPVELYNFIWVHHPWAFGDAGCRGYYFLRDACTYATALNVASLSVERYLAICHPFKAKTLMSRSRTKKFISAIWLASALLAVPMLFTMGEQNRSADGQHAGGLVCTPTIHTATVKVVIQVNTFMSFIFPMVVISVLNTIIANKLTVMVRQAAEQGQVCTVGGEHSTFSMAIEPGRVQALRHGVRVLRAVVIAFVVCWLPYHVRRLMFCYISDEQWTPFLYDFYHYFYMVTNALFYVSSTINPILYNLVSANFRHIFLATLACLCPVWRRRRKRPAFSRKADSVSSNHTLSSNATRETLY", "assay_type": "functional"}, "[7]": {"target": "T2, RNA-binding protein pos-1 (Caenorhabditis elegans, UniProt G5EF15)", "T2 sequence (G5EF15 whole entry)": "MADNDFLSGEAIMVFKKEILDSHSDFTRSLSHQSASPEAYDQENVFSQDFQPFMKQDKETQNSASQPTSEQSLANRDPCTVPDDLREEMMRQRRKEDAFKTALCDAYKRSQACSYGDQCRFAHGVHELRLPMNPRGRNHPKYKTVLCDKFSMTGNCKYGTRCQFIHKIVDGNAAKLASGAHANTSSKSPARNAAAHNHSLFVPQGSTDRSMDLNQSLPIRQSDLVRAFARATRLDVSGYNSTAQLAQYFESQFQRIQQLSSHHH", "assay": "inhibitors of POS-1/mex-3 RNA binding, dose response, biochemical, fluorescence polarization (AID 1964);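 further: purified POS-1 fused to maltose binding protein made in E. coli; potency of compounds blocking POS-1 binding to fluorescent RNA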"}, "[8]": {"assay": "Luminescence Cell-Based Dose Retest to Confirm Activators of 5'UTR Stem-Loop Driven Alpha-Synuclein mRNA Translation in H4 Neuroglioblastoma Cells. [Related pubchem assays (depositor defined):AID1813, AID1829]", "assay_type": "functional"}, "[9]": {"assay": "Luminescence Cell-Based Dose Confirmation HTS to Identify Activators of 5'UTR Stem-Loop Driven Alpha-Synuclein mRNA Translation in H4 Neuroglioblastoma Cells. [Related pubchem assays: 1829 (Project Summary), 1814 (Primary HTS)]", "assay_type": "functional"}, "[10]": {"assay": "Luminescence Cell-Based Dose Response HTS to Identify Activators of 5'UTR Stem-Loop Driven Prion Protein mRNA Translation in H4-C Neuroglioblastoma Cells. [Related pubchem assays: 1829 (Project Summary), 1814 (Primary HTS)]", "assay_type": "functional"}, "[11]": {"target": "T3, Heat shock factor protein 1 (Mus musculus, UniProt P38532)", "T3 sequence (P38532 whole entry)": "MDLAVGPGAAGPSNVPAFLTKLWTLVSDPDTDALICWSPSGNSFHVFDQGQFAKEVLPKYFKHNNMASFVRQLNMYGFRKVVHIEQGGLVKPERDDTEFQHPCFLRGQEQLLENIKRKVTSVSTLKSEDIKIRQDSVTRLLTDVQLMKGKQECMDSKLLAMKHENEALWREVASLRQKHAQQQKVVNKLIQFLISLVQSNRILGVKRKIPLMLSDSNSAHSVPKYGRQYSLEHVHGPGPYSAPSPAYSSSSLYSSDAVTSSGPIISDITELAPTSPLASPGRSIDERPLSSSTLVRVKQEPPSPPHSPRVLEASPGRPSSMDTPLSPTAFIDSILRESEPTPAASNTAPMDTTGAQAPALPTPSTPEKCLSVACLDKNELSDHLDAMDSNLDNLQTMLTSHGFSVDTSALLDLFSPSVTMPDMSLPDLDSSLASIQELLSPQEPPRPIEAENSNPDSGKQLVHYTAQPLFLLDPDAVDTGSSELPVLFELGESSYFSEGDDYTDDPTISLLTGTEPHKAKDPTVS", "assay": "HSF1 potentiators in luciferase reporter cells, confirmation, cell-based, NIH3T3, luminescence, dose retest (AID 435004);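 further: stress induced by proteasome inhibitor MG132 added 30 min after compound; actives raise luminescence as potentiators of the MG132 stress response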", "assay_type": "functional"}, "[12]": {"assay": "Luminescence Cell-Based Dose Response HTS to Identify Activators of Luciferase Translation or Activity in H4-C Neuroglioblastoma Cells. [Related pubchem assays: 1829 (Project Summary), 1814 (Primary HTS)]", "assay_type": "functional"}, "H4": {"tested_on": "H4", "assay": "Luminescence Cell-Based Dose Response HTS to Identify Activators of 5'UTR Stem-Loop Driven Prion Protein mRNA Translation in H4 Neuroglioblastoma Cells. [Related pubchem assays: 1829 (Project Summary), 1814 (Primary HTS)]", "assay_type": "functional", "details": "Homo sapiens"}, "[13]": {"assay": "Luminescence Cell-Based Dose Response HTS to Identify Activators of Luciferase Translation or Activity in H4 […] Cells. [Related pubchem assays: 1829 (Project Summary), 1814 (Primary HTS)]", "assay_type": "functional"}, "BJ [14]": {"tested_on": "BJ", "assay": "cytotoxicity toward BJ-TERT-LT-ST fibroblasts, dose response, cell-based, RAS-independent, luminescence (AID 1935);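 further: BJ fibroblasts immortalized with TERT plus LT and ST oncogenes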", "assay_type": "functional", "details": "Homo sapiens"}, "CAAX prenyl protease 2 [15]": {"target": "CAAX prenyl protease 2 (Homo sapiens, UniProt Q9Y256)", "sequence (Q9Y256 whole entry)": "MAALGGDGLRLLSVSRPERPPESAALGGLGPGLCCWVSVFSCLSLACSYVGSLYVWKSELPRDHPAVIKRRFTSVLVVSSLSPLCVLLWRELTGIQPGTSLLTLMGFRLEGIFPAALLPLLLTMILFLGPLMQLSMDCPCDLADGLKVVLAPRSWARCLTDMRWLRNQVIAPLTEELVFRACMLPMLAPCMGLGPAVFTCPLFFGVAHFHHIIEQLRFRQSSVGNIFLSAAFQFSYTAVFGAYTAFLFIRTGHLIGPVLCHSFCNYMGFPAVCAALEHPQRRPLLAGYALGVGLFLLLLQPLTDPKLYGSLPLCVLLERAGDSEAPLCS", "assay": "human Rce1 protease inhibitors, dose response, biochemical, yeast membranes, quenched-peptide fluorescence, cherry-pick (AID 588849)"}, "BJ [16]": {"tested_on": "BJ", "assay": "cells", "assay_type": "functional, cell-based", "details": "Homo sapiens"}, "[17]": {"assay": "Luminescence Cell-Based Dose Confirmation HTS to Identify Inhibitors of Platelet Dense Granule Release. [Related pubchem assays: 1663 (Primary HTS), 1678 (Summary of Project)]", "assay_type": "functional"}, "[18]": {"assay": "Luminescence Cell-Based Dose Response HTS to Identify Inhibitors of 5'UTR Stem-Loop Driven Prion Protein mRNA Translation in H4 Neuroglioblastoma Cells. [Related pubchem assays: 1827 (Project Summary), 1813 (Primary HTS)]", "assay_type": "functional"}, "[19]": {"assay": "inhibitors of firefly luciferase expression or activity, dose response, H4 neuroglioma cells, luminescence (AID 1990)", "assay_type": "functional, cell-based"}, "[20]": {"assay": "cytotoxicity toward DRD oncogenic fibroblasts, dose response, cell-based, non-viral oncogenic, luminescence (AID 1934)", "assay_type": "functional", "details": "Homo sapiens"}, "CAAX prenyl protease 1": {"target": "CAAX prenyl protease 1 (Saccharomyces cerevisiae S288c, UniProt P47154)", "sequence (P47154 whole entry)": "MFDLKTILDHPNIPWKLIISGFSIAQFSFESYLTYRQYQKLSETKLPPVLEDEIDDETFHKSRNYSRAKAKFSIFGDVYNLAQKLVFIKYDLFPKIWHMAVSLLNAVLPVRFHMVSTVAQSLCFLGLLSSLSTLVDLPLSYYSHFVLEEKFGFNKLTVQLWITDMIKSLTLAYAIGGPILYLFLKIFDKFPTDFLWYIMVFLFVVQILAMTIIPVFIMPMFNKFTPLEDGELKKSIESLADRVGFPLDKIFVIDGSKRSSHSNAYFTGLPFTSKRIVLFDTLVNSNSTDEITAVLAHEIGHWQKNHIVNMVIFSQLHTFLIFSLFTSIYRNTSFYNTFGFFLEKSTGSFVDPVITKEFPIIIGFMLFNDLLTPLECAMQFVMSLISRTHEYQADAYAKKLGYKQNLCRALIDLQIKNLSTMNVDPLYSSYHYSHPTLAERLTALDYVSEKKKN", "assay": "Ste24 protease inhibitors, dose response, biochemical, S. cerevisiae, plate reader, cherry-pick (AID 488815)"}, "BJ [21]": {"tested_on": "BJ", "assay": "cytotoxicity toward BJ-TERT fibroblasts, dose response, cell-based, RAS-independent, luminescence (AID 1933)", "assay_type": "functional", "details": "Homo sapiens"}, "Trypsin": {"target": "Trypsin (Sus scrofa, UniProt P00761)", "sequence (P00761 whole entry)": "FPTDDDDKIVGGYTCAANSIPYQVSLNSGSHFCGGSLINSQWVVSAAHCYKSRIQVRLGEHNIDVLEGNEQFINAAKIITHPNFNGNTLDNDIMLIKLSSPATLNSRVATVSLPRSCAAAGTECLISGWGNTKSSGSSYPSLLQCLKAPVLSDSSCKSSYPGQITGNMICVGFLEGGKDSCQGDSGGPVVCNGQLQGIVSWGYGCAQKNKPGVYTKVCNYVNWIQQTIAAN", "assay": "porcine trypsin inhibitors, dose response, selectivity assay for Rce1 protease inhibitor project, biochemical, quenched peptide fluorescence, cherry-pick (AID 488789)"}, "[22]": {"target": "Cyclin-dependent kinase 5/CDK5 activator 1 (Homo sapiens, UniProt Q00535)", "sequence (Q00535 whole entry)": "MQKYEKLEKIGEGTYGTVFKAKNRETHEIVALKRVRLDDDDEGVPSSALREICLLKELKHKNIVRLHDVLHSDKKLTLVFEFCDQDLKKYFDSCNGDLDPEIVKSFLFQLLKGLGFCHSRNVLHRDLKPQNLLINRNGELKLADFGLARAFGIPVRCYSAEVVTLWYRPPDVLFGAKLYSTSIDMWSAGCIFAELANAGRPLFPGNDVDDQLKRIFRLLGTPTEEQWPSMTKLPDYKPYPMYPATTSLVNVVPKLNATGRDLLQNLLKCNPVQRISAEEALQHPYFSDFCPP", "sequence (Q15078 whole entry, further chain)": "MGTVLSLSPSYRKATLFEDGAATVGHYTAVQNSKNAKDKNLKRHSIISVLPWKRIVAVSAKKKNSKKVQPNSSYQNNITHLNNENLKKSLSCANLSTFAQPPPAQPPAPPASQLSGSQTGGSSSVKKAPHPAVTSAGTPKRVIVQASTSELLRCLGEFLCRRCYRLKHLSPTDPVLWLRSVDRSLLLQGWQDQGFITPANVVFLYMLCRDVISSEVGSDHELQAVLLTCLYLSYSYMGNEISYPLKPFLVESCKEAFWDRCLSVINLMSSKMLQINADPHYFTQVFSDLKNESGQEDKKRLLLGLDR", "assay": "CDK5/p35 kinase inhibitors, dose response, biochemical, cherry-picked samples, set 2 (AID 504545)"}, "[23]": {"assay": "inhibitors of SNCA 5'UTR-driven reporter translation, confirmation, H4 neuroglioma cells, luminescence (AID 1988)", "assay_type": "functional, cell-based"}, "[24]": {"target": "Luciferin 4-monooxygenase (Photinus pyralis, UniProt P08659)", "sequence (P08659 whole entry)": "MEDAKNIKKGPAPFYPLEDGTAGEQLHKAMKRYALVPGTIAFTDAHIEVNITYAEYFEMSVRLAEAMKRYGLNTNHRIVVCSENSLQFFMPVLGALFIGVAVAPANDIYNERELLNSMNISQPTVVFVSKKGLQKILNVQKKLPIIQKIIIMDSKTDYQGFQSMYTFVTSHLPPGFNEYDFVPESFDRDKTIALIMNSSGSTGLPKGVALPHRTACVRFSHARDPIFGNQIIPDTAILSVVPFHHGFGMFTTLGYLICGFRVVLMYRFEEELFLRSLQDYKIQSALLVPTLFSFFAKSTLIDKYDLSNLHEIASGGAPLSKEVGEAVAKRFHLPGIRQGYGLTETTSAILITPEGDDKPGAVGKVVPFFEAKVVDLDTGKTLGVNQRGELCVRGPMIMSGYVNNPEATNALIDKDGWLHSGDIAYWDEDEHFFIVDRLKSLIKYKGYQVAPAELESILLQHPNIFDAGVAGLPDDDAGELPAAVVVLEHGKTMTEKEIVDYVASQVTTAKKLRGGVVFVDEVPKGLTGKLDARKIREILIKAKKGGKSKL", "assay": "firefly luciferase enzyme inhibitors, dose response, biochemical, luminescence (AID 1891)"}, "CAAX prenyl protease 2 [25]": {"target": "T4, CAAX prenyl protease 2 (Saccharomyces cerevisiae S288c, UniProt Q03530)", "T4 sequence (Q03530 whole entry)": "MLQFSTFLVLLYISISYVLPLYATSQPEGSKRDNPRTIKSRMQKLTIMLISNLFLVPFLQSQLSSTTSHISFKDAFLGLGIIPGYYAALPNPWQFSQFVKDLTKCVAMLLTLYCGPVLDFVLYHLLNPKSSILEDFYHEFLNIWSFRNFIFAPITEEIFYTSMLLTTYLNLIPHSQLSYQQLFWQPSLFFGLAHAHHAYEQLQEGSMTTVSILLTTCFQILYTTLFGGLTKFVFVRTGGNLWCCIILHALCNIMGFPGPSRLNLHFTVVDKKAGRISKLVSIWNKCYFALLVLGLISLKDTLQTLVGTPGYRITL", "assay_type": "biochemical"}, "[26]": {"assay": "inhibition of ADP-Glo detection reagents, dose response, artefact control for CDK5 inhibitor project, biochemical, luminescence, cherry-picked samples, set 2 (AID 504546)", "assay_type": "functional"}}, "note": "Calls of active or inactive are those of the source. For most assays here, no stated cut-off is given here; in the data, actives have a measured EC50 and inactives only a lower limit.", "data": [{"smiles": "CCc1sc(N2C(=O)C3C4CCC(C4=C(C)C)C3C2=O)nc1-c1ccccc1", "note": "(centres undefined)", "values": [{"measurement": "AC50", "setting": "[1]", "result": "0.635 µM (active)"}]}, {"smiles": "O=C(Nc1ccc(N2C(=O)[C@@H]3[C@H](C2=O)[C@@H]2CC[C@H]3O2)c(Cl)c1)c1ccccn1", "values": [{"measurement": "EC50", "setting": "[2]", "result": "1.44 µM (active)"}, {"measurement": "EC50", "setting": "[3]", "result": "2.29 µM (active)"}]}, {"smiles": "O=C(Nc1nnc(/C=C/c2ccccc2)s1)c1ccco1", "values": [{"measurement": "IC50", "setting": "[4]", "result": "> 75 µM (active)"}]}, {"smiles": "O=C1NC(=O)C(=Cc2cn(CCOc3ccc4c(c3)OCO4)c3ccccc23)C(=O)N1", "values": [{"measurement": "EC50", "setting": "[5]", "result": "11.9 µM (active)"}, {"measurement": "EC50", "setting": "[6]", "result": "4.12 µM (active)"}, {"measurement": "EC50", "setting": "[7]", "result": "16.7 µM (active)"}]}, {"smiles": "Cc1cccc(NCc2nc3ccccc3n2C)c1", "values": [{"measurement": "EC50", "setting": "[8]", "result": "0.752 µM (active)"}, {"measurement": "EC50", "setting": "[9]", "result": "0.296 µM (active)"}, {"measurement": "EC50", "setting": "[10]", "result": "3.39 µM (active)"}, {"measurement": "EC50", "setting": "[11]", "result": "201 µM (active)"}, {"measurement": "EC50", "setting": "[12]", "result": "1.63 µM (active)"}, {"measurement": "EC50", "setting": "H4", "result": "8.1 µM (active)"}, {"measurement": "EC50", "setting": "[13]", "result": "> 120 µM (not active)"}]}, {"smiles": "Cc1ccc2nc(-c3ccccc3)cn2c1", "values": [{"measurement": "EC50", "setting": "BJ [14]", "result": "> 150 µM (inconclusive)"}, {"measurement": "AC50", "setting": "CAAX prenyl protease 2 [15]", "result": "> 100 µM (inactive)"}, {"measurement": "EC50", "setting": "BJ [16]", "result": "9.05 µM (active)"}, {"measurement": "EC50", "setting": "[17]", "result": "2.18 µM (active)"}, {"measurement": "EC50", "setting": "[18]", "result": "8.72 µM (active)"}, {"measurement": "EC50", "setting": "[19]", "result": "1.32 µM (active)"}, {"measurement": "EC50", "setting": "[20]", "result": "7.45 µM (active)"}, {"measurement": "AC50", "setting": "CAAX prenyl protease 1", "result": "7.44 µM (active)"}, {"measurement": "EC50", "setting": "BJ [21]", "result": "9.54 µM (active)"}, {"measurement": "AC50", "setting": "Trypsin", "result": "59.9 µM (active)"}, {"measurement": "AC50", "setting": "[22]", "result": "18.6 µM (active)"}, {"measurement": "EC50", "setting": "[23]", "result": "0.717 µM (active)"}, {"measurement": "EC50", "setting": "[24]", "result": "1.58 µM (active)"}, {"measurement": "AC50", "setting": "CAAX prenyl protease 2 [25]", "result": "> 100 µM (inactive)"}, {"measurement": "AC50", "setting": "[26]", "result": "59.3 µM (active)"}]}]}
